Results from patent US20180161314A1, “Methods for Treating Hyperuricemia and Related Diseases” (Ardea Biosciences, Inc., priority 2010, published 2018).
Like-named read-outs stand apart in the source and are kept apart here.

Experiments:
[1] = system: hyperuricemic subjects with symptomatic gout; assay: Pilot study of drug 1 versus placebo and open-label allopurinol in hyperuricemic subjects with symptomatic gout (Examples 1, 2, 20); type: in vivo, human
Protocol: Study Objectives • To compare the proportion of subjects whose sUA level is <6.0 mg/dL following 2 weeks of continuous treatment with drug 1 compared to allopurinol and placebo. • To evaluate the percent reduction from baseline in sUA levels following 2 weeks of continuous treatment with drug 1 in combination with allopurinol. • To evaluate the proportion of subjects whose sUA levels are <6.0 mg/dL, <5.0 mg/dL and <4.0 mg/dL at each visit. • To evaluate the absolute and percent reduction from baseline in sUA levels at each visit. • To evaluate the maximum percent reduction in sUA levels from baseline during the entire treatment period. • To evaluate percent change in 24-hour urine uric acid level from baseline to Day 15. • To evaluate the safety and tolerability of drug 1 in subjects with gout. • To evaluate the pharmacokinetics, safety and tolerability of drug 1 in combination with allopurinol in subjects with gout.
A randomized, double-blind, placebo-controlled, dose titration, safety and pharmacodynamics pilot study, in approximately 26 hyperuricemic subjects with symptomatic gout enrolled at 2-3 investigational sites in N America, of: • drug 1 versus placebo and open-label allopurinol (Cohort 1); and • drug 1 in combination with allopurinol versus continued allopurinol alone (Cohort 2)
Subjects are randomized 7 days prior to Day 1 in a double-blind fashion to receive drug 1, drug 1 matching placebo, or open-label allopurinol (Cohort 1) or drug 1 or drug 1 matching placebo in combination with allopurinol (Cohort 2).
To reduce the incidence of gout flares, colchicine 0.6 mg qd is administered to all subjects starting 14 days prior to the Baseline (Day 1) visit. Subjects continue colchicine administration throughout the Treatment Period, discontinuing at the End of Study visit (one week after the last dose of study medication).
Cohort 1 approx 20 subjects randomized in 2:1:1 ratio treatment groups—drug 1:placebo:allopurinol.
Subjects randomized to double-blind treatment: • approx 10 subjects randomized to receive drug 1 200 mg qd (4 drug 1 50 mg capsules/day) for one week, followed by drug 1 400 mg qd (8 drug 1 50 mg capsules/day) for one week. • 5 subjects randomized to receive drug 1 matching placebo qd for 2 weeks (week 1-4 drug 1 matching placebo capsules; week 2-8 drug 1 matching placebo capsules)
Subjects randomized to open-label treatment: • 5 subjects randomized to receive allopurinol 300 mg tablets qd for 2 weeks Cohort 2 approx 6 subjects randomized in 5:1 ratio treatment groups—drug+allopurinol:placebo+allopurinol
For Cohorts 1 and 2, subjects randomized to double-blind treatment take drug 1 or drug 1 matching placebo every 24 hours (±1 h) (morning dose) for a period of 2 weeks. For Cohort 1, subjects randomized to open-label treatment take allopurinol every 24 hours (±1 h) (morning dose) for a period of 2 weeks.
Subjects are requested to then drink approximately 240 mL of water 1-2 hours after dosing.
1. Male or post-menopausal or surgically sterile female. 2. 18-75 years of age. 3. Hyperuricemic, defined as: Cohort 1: Screening serum uric acid is ≥8 mg/dL Cohort 2: Screening serum uric acid is ≥10 mg/dL 4. Subject meets one or more of the 1977 American Rheumatism Association (ARA) criteria for the diagnosis of acute arthritis of primary gout. 5. Subject is willing and able to give informed consent and adhere to visit/protocol schedules.
Blood samples (4.5 mL) are collected and sUA levels determined at Screening (repeated as necessary prior to Day 1), Baseline (Day 1) (1 hour and 8 hours post-dose), Day 8 (trough, 1 hour and 8 hours post-dose), Day 9 (24 hours after Day 8 dose), and Day 14 (trough and 8 hours post-dose), Day 15 and End of Study. An additional sUA level is obtained on Day 7 for Cohort 2 subjects prior to the first dose of allopurinol.
Primary pharmacodynamics parameter is the proportion of subjects with serum uric acid <6.0 mg/dL following 2 weeks of treatment. […]

[2] = system: gout patients with hyperuricemia; type: in vivo; details: for Mean absolute sUA reduction / Mean sUA % change / Mean sUA level: ± SE; for % Response rate for sUA falling below 4 mg/dL / % Response rate for sUA falling below 5 mg/dL / % Response rate for sUA falling below 6 mg/dL: allopurinol 300 mg
Protocol: Study Objectives • To measure the effect of drug 1, alone and in combination with allopurinol, on serum urate concentration. • To evaluate the safety and tolerability of drug 1 in combination with allopurinol.
The study is open-label in gout patients with hyperuricemia, involving 2 panels of ˜10-12 patients per panel. The panels may be enrolled simultaneously.
Panel 1 receives a once-daily dose of allopurinol 300 mg alone for 7 days and for an additional 7 days in combination with a once-daily dose of drug 1 400 mg. Patients then receive 7 days of a once-daily dose of drug 1 400 mg alone. Panel 2 follows the same regimen as panel 1, at doses of allopurinol 300 mg and drug 1 600 mg.
• Day −10 to Day 28: colchicine prophylaxis; or • Day −7 to Day 28: colchicine prophylaxis (for patients not washing out from ULT) • Days 1-7: allopurinol 300 mg qd • Days 8-14: drug 1 400 mg qd+allopurinol 300 mg qd • Days 15-21: drug 1 400 mg qd
• Day −10 to Day 28: colchicine prophylaxis; or • Day −7 to Day 28: colchicine prophylaxis (for patients not washing out from ULT) • Days 1-7: allopurinol 300 mg qd • Days 8-14: drug 1 600 mg qd+allopurinol 300 mg qd • Days 15-21: drug 1 600 mg qd
Gout patients on a urate lowering therapy (ULT), have previously taken a ULT or who have never taken a ULT are eligible to participate. Screening procedures to determine patient eligibility are performed within approximately 14 days of the first dose of study drug (Day 1). Subjects currently on ULT wash-out for at least 10 days before Day 1, and begin colchicine (Colcry® 0.6 mg qd, URL Pharma) as prophylaxis for gout flares at the beginning of the wash-out period. Subjects not on ULT begin colchicine administration at least 7 days prior to Day 1. Patients intolerant of colchicine during the screening period are considered screen failures and not enrolled. Prophylactic administration of colchicine continues for 7 days after the last dose of study medication.
Eligible patients report to the study center early morning on Days −1, 7, 14, and 21 (or the afternoon/evening the day before). Serial blood samples are collected on Days −1, 7, 14, and 21. Study medication is administered to each patient and taken orally every morning with approximately 240 mL of water, at approximately the same time of the morning every day, and approximately 30 minutes after finishing a full breakfast (approximately 650 Kcal and 35% fat); the breakfast is standardized on Days −1 to 21.
Inclusion Criteria • Patient is male or post-menopausal or surgically sterile female. • Patient is 18-80 years of age. • Patient meets one or more criteria for the diagnosis of gout as per the American Rheumatism Association (ARA) Criteria for the Classification of Acute Arthritis of Primary Gout (Appendix B). • Patient sUA≥8 mg/dL at screening. • Patient willing and able to give informed consent and adhere to visit/protocol schedules • No clinically relevant abnormalities in blood pressure (BP), heart rate (HR), body temperature and respiratory rate as per Investigator's judgment.
Subject urate serum levels are recorded, and any safety concerns assessed (by adverse events, clinical laboratory test results, vital signs, 12-lead ECGs, and physical examinations). […] Urate serum concentrations are evaluated for treatment- and/or time-dependent changes relative to baseline (Day −1), and may be expressed both in standard units (mg/dL) and as changes from baseline (e.g., percent change, absolute change, maximal change, and time or day of maximal change).
Drug 1 was tested according to the protocol described in Example 21.
Serum urate levels were measured and absolute and % reduction levels from baseline calculated, for Allopurinol monotherapy, Drug 1 monotherapy and Allopurinol plus Drug 1 combination.

[3] = Drug 1 400 mg panel: allopurinol 300 mg qd days 1-7, combination days 8-14, drug 1 400 mg qd alone days 15-21
[4] = Drug 1 600 mg panel: allopurinol 300 mg qd days 1-7, combination days 8-14, drug 1 600 mg qd alone days 15-21

SMILES: Oc1ncnc2[nH]ncc12 [Allopurinol, 1H-pyrazolo[3,4-d]pyrimidin-4(2H)-one, reference compound]
- Responders Day 14 (those with sUA <6 mg/dL) ([1]; Cohort 1, Day 14, responders/subjects, drug 1 200 mg qd 1 week then 400 mg qd 1 week, allopurinol 300 mg qd 2 weeks): 5/5
- Adverse event ([1]; one subject on allopurinol 300 mg qd): hyperaldosteronemia
- Mean absolute sUA reduction [2, 3]: -3.1 ± 0.28 mg/dL
- Mean sUA % change [2, 3]: −32.2 ± 2.1%
- Mean sUA level [2, 3]: 6.5 ± 0.16 mg/dL
- % Response rate for sUA falling below 4 mg/dL ([2]; Drug 1 400 mg panel): 0%
- % Response rate for sUA falling below 5 mg/dL ([2]; Drug 1 400 mg panel): 0%
- % Response rate for sUA falling below 6 mg/dL ([2]; Drug 1 400 mg panel): 10%
- Mean absolute sUA reduction [2, 4]: -2.6 ± 0.26 mg/dL
- Mean sUA % change [2, 4]: −28.7 ± 2.4%
- Mean sUA level [2, 4]: 6.3 ± 0.31 mg/dL
- % Response rate for sUA falling below 4 mg/dL ([2]; Drug 1 600 mg panel): 0%
- % Response rate for sUA falling below 5 mg/dL ([2]; Drug 1 600 mg panel): 10%
- % Response rate for sUA falling below 6 mg/dL ([2]; Drug 1 600 mg panel): 30%
